{
  "source": "patent US6803367B2",
  "about": "“Substance for inducing apoptosis” (Takara Shuzo Co., Ltd., priority 1997, dated 2004)",
  "type_in_all_cases": "cell-based, human",
  "key": {"HL-60 cells [1]": {"system": "HL-60 cells", "assay": "Observation of apoptotic body in HL-60 cells under a microscope", "description": "(§1) To each of the wells of a 96-well microtiter plate was added 1000, 500, 250, 125, 62.5 or 31.3 μg/ml aqueous solution of imidazolylcyclopentenone obtained in Example 1-(2) or 10 μl of water as a control. HL-60 (ATCC CCL-240) was suspended in an RPMI 1640 medium containing 10% of fetal calf serum to make the concentration 5×10^4 cells/ml and each 90 μl thereof was placed in each well of the above-mentioned microtiter plate and incubated at 37° C. for 48 hours in the presence of 5% carbon dioxide. Incubation was conducted for four hours more after addition of 10 μl of a solution (5 mg/ml) of 3-(4,5-dimethylthiazol-2-yl)-2,5-diphenyltetrzolium bromide (MTT; manufactured by Sigma) in a phosphate-buffered saline solution and the state of growth of the cells was observed under a microscope. Further, 100 μl of 2-propanol containing 0.04N hydrochloric acid was added followed by stirring and an absorbance at 590 nm was measured.\nAs a result of observation under a microscope, production of apoptotic body was confirmed.\nMain peaks and the fractions between them were collected and evaporated to dryness in vacuo, each of the fractions was diluted to an extent of 3- or 9-fold with water and their activity of growth inhibition of HL-60 cells was measured by the same way as in Example 3 except that 5 μl of the sample were added to each well and the incubation was conducted for 18 hours. […]"}, "HL-60 cells [2]": {"system": "HL-60 cells", "assay": "Growth inhibition of HL-60 cells (MTT, 96-well microtiter plate)", "settings": "for activity of growth inhibition of cancer cells: 5 μl per well, 18 hours incubation", "description": "as §1\nThe non-adsorbed fraction of Example 4 was adjusted to pH 3 with HCl and heated at 121° C. for 1 hour. The resulting heat-treated solution was diluted with aseptic water to an extent of 2-, 4-, 8-, 16-, 32- or 64-fold and its activity of growth inhibition of HL-60 cells was measured by the same way as in Example 3.\nMain peaks and the fractions between them were collected and evaporated to dryness in vacuo, each of the fractions was diluted to an extent of 3- or 9-fold with water and their activity of growth inhibition of HL-60 cells was measured by the same way as in Example 3 except that 5 μl of the sample were added to each well and the incubation was conducted for 18 hours. […] Production of apoptotic body was confirmed as well.\nThe growth inhibiting activity of a 1 mM aqueous solution of MC2 and a 350 μM aqueous solution of HMC2 obtained in Example 10 to HL-60 cells was measured by the same way as in Example 3."}, "HL-60 cells [3]": {"system": "HL-60 cells", "assay": "DNA fragmentation in HL-60 cells by agarose gel electrophoresis", "settings": "after incubation for 15 hours; concentration of the aqueous solution added (0.5 ml to 4.5 ml suspension)", "description": "(§2) HL-60 cells (ATCC CCL240) which were incubated at 37° C. in an RPMI 1640 medium (manufactured by Nissui) containing 10% of fetal calf serum (manufactured by Gibco) treated at 56° C. for 30 minutes were suspended in the above medium to make the concentration 2.5×10^5 cells/4.5 ml. To this suspension was added 0.5 ml of 10 μM, 20 μM, 40 μM or 80 μM aqueous solution of S-1127 followed by incubating at 37° C. in the presence of 5% carbon dioxide gas for 15 hours or 39 hours.\n(§3) Incidentally, such a phenomenon was not observed in the water-added control section."}, "HL-60 cells [4]": {"system": "HL-60 cells", "assay": "Viable and dead cell counting of HL-60 cells by Trypan Blue staining", "description": "as §2, §3\nIn FIG. 31, ◯ indicates the case where 10 μM of S-1127 was added; Δ indicates the case where 20 μM of S-1127 was added; □ indicates the case where 40 μM of S-1127 was added; X indicates the case where 80 μM of S-1127 was added and ● indicates the control where water was added."}},
  "data": [
    {"smiles": "COC1=CC(OC)CC1=O", "note": "(stereo not shown) [MC2, 2,4-dimethoxy-2-cyclopenten-1-one]", "values": [
      {"measurement": "apoptotic body under an optical microscope", "setting": "HL-60 cells [1]; final concentration 100 μM", "result": "observed"},
      {"measurement": "growth of the cells", "setting": "HL-60 cells [2]; 1 mM solution added, final concentration 100 μM, HL-60", "result": "inhibited"}
    ]},
    {"smiles": "CC(=O)Nc1ccc(O)c(O)c1O", "note": "[N-(2,3,4-trihydroxyphenyl)acetamide]", "values": [
      {"measurement": "production of apoptotic body", "setting": "HL-60 cells [1]; Example 6, 18 hours incubation", "result": "confirmed"},
      {"measurement": "activity of growth inhibition of cancer cells", "setting": "HL-60 cells [2]; 3-fold diluted solution of the HPLC fraction, HL-60", "result": "activity of growth inhibition of cancer cells was noted"},
      {"measurement": "activity of growth inhibition of cancer cells", "setting": "HL-60 cells [2]; undiluted aqueous solution of the HPLC fraction, HL-60", "result": "activity of growth inhibition of cancer cells was noted"}
    ]},
    {"smiles": "CC(=O)N[C@H]1C(O)O[C@H](CO)[C@H](O)[C@@H]1O", "note": "(stereo partly shown) [N-acetylgalactosamine, reference compound]", "values": [
      {"measurement": "growth of the cells versus water-added control section", "setting": "HL-60 cells [2]; 4 mg/ml added, HL-60", "result": "no difference"}
    ]},
    {"smiles": "O=CC(=CCc1ccc(O)cc1)c1ccc(O)cc1", "note": "[S-1127, 2,4-bis(p-hydroxyphenyl)-2-butenal]", "values": [
      {"measurement": "concentration at which fragmentation of DNA was noted", "setting": "HL-60 cells [3]", "result": "≥ 20", "unit": "µM"},
      {"measurement": "living cell numbers compared with the water-added control section", "setting": "HL-60 cells [4]; 20 μM added, after incubation of 39 hours", "result": "significantly decreased"},
      {"measurement": "concentration at which cells were killed", "setting": "HL-60 cells [4]; after incubation of 15 hours, concentration of the aqueous solution added (0.5 ml to 4.5 ml suspension)", "result": "≥ 40", "unit": "µM"}
    ]},
    {"smiles": "O=C1CC(n2ccnc2)C=C1O", "note": "(stereo not shown) [imidazolylcyclopentenone, 2-hydroxy-4-(1-imidazolyl)-2-cyclopenten-1-one]", "values": [
      {"measurement": "concentration at which the growth of HL-60 cells was completely inhibited", "setting": "HL-60 cells [2]; final concentration, 48 hours incubation, MTT", "result": 6.25, "unit": "µg/mL"}
    ]}
  ]
}
